Measured values reported in US6764999B2, “Nasal delivery of parasiticides” (priority 2002, dated 2004).

How the values were obtained:
[1] = system: most parasites; settings: cattle; cited from earlier work
[2] = system: Haemonchus contortus; settings: cited from earlier work
[3] = topical, 500 micrograms per kilogram body weight; cited from earlier work
[4] = system: Trichostrongylus colubriformis; settings: cited from earlier work
[5] = injection, about 200 micrograms per kilogram of bodyweight; cited from earlier work
[6] = serum levels of ivermectin after administration to the nasal pharynx; assay type: in vivo, beef steers
Experimental: To study the dose/response efficacy of nasal administration of macrocyclic lactone parasicides, three (3) beef steers of mixed breeding were used to evaluate three treatments. These three treatments were:
Treatments were applied and cattle were bled via jugular venipuncture at 0, 6, 24, 48, and 96 hours post-dosing.
Table I recites serum levels of ivermectin, in nanograms per milliliter, for the three treatments recited above at 0, 6, 24, 48, and 96 hours post dosing by nasal administration. Each treatment included delivering a 1 ml mixture comprising ivermectin and propylene glycol to the nasal pharnyx of the animal.

[7] = autoclave temperatures; cited from earlier work

## ivermectin
[1]
  serum level sufficient to protect the animal against reinfestation of most parasites: > 2 ng/mL
[2]
  inhibition of pharyngeal pumping compared with motility: more potent inhibition of pharyngeal pumping than motility
[3]
  CMAX: 12.2 ng/mL
[4]
  inhibition of pharyngeal pumping compared with motility: more potent inhibition of pharyngeal pumping than motility
[5]
  CMAX serum level: about 30 ng/ml
[6]; Treatment 1, nasal, about 248 μg/kg in propylene glycol, 0 Hours
  serum level of ivermectin: 0.19 nanograms per milliliter
[6]; Treatment 1, nasal, about 248 μg/kg in propylene glycol, 6 Hours
  serum level of ivermectin: 5.87 nanograms per milliliter
[6]; Treatment 1, nasal, about 248 μg/kg in propylene glycol, 24 Hours
  serum level of ivermectin: 15.24 nanograms per milliliter
[6]; Treatment 1, nasal, about 248 μg/kg in propylene glycol, 48 Hours
  serum level of ivermectin: 11.22 nanograms per milliliter
[6]; Treatment 1, nasal, about 248 μg/kg in propylene glycol, 96 Hours
  serum level of ivermectin: 7.58 nanograms per milliliter
[6]; Treatment 1, nasal, about 248 micrograms per kilogram body weight
  maximum serum level CMAX(1): about 15 nanograms of ivermectin per ml of blood
[6]; Treatment 1, nasal, about 248 micrograms per kilogram, as restated
  CMAX(1): greater than 15 ng/ml
[6]; Treatment 2, nasal, about 409 μg/kg in propylene glycol, 0 Hours
  serum level of ivermectin: 0.21 nanograms per milliliter
[6]; Treatment 2, nasal, about 409 μg/kg in propylene glycol, 6 Hours
  serum level of ivermectin: 6.58 nanograms per milliliter
[6]; Treatment 2, nasal, about 409 μg/kg in propylene glycol, 24 Hours
  serum level of ivermectin: 24.48 nanograms per milliliter
[6]; Treatment 2, nasal, about 409 μg/kg in propylene glycol, 48 Hours
  serum level of ivermectin: 19.71 nanograms per milliliter
[6]; Treatment 2, nasal, about 409 μg/kg in propylene glycol, 96 Hours
  serum level of ivermectin: 13.88 nanograms per milliliter
[6]; Treatment 2, nasal, about 409 micrograms per kilogram body weight
  maximum serum level CMAX(2): about 24 nanograms of ivermectin per ml of blood
[6]; Treatment 3, nasal, about 872 μg/kg in propylene glycol, 0 Hours
  serum level of ivermectin: 0.22 nanograms per milliliter
[6]; Treatment 3, nasal, about 872 μg/kg in propylene glycol, 6 Hours
  serum level of ivermectin: 22.51 nanograms per milliliter
[6]; Treatment 3, nasal, about 872 μg/kg in propylene glycol, 24 Hours
  serum level of ivermectin: 40.79 nanograms per milliliter
[6]; Treatment 3, nasal, about 872 μg/kg in propylene glycol, 48 Hours
  serum level of ivermectin: 30.53 nanograms per milliliter
[6]; Treatment 3, nasal, about 872 μg/kg in propylene glycol, 96 Hours
  serum level of ivermectin: 19.38 nanograms per milliliter
[6]; Treatment 3, nasal, about 872 micrograms per kilogram body weight
  maximum serum level CMAX(3): about 41 nanograms of ivermectin per ml of blood
[6]; all three treatments, nasal
  time for which serum levels of ivermectin exceed 2 ng ml^−1: > 96 h
[7]
  thermal stability: subject to decomposition at autoclave temperatures
